Source: patent publication US20130065928A1, “BIOMARKERS FOR PI3K-DRIVEN CANCER” (WYETH LLC, priority 2010, published 2013)

How the values were obtained:
PKN3 = target: T1, PKN3 (Homo sapiens, UniProt Q6P5Z2); assay: Kinase activity of PKN3 in transfected cells, phospho-GSKα read-out (Western blot); assay type: cell-based; conditions: cells transfected with WT PKN3; changing concentrations; FIG. 2
T1 construct: The full-length cDNA of human PKN3 (WT or wt) was amplified by PCR and cloned into a GST-fusion expression vector; GST; expressed in transfected cells; host or cells: HEK293T
Excerpt: (§1) The full-length cDNA of human PKN3 (WT or wt) was amplified by PCR and cloned into a GST-fusion expression vector under the control in a doxycycline (Dox)-inducible promoter. A kinase dead (KD or kd) version of PKN3, which comprises a K588R substitution, was also cloned into the same vector using the same strategy. The proteins were expressed in HEK293T cells transfected with the PKN3 WT and KD constructs. […] WT PKN3 is phosphorylated at the turn motif threonine (P*-PKN3^T860) and phosphorylates the GSKα substrate, whereas the KD version does neither (FIG. 1).
(§2) For protein extraction, cells were washed twice with cold phosphate-buffered saline (PBS) and lysed at 4° C. in lysis buffer containing 20 mM Tris (pH 7.5), 137 mM NaCl, 15% (vol/vol) glycerol, 1% (vol/vol) Nonidet P-40 (NP-40), 2 mM phenylmethylsulfonyl fluoride, […] of aprotinin per ml, […] leupeptin, 2 mM benzamidine, 1 mM sodium vanadate, 25 mM β-glycerolphosphate, 50 mM NaF, and 10 mM Na-pyrophosphate. Lysates were cleared by centrifugation at 14,000×g for 5 min, and aliquots of the lysates were analyzed for protein expression and enzyme activity (see below). Samples were separated by sodium dodecyl sulfate-polyacrylamide gel electrophoresis (SDS-PAGE) and transferred to nitrocellulose filters (Schleicher & Schuell). Filters were blocked in TBST buffer (10 mM Tris-HCl [pH 7.5], 150 mM NaCl, 0.05% [vol/vol] Tween 20, 0.5% [wt/vol] sodium azide) containing 5% (wt/vol) dried milk. The respective antibodies were added in TBST at appropriate dilutions. Bound antibody was detected with anti-mouse-, anti-goat, or anti-rabbit-conjugated alkaline phosphatase (Santa Cruz Biotechnology) in TBST, washed, and developed with nitroblue tetrazolium and 5-bromo-4-chloro-3-indolylphosphate (Promega). Alternatively, horseradish peroxidase-conjugated secondary antibodies were used and developed by enhanced chemiluminescence (Amersham).
Various ATP-type kinase inhibitors were assessed for their ability to inhibit the kinase activity of both recombinant wildtype (WT) and kinase dead (KD) versions of PKN3.

kinase dead PKN3 = target: T2, kinase dead PKN3 (Homo sapiens, UniProt Q6P5Z2, K588R); assay: Priming of kinase dead PKN3 for turn motif threonine phosphorylation by ATP binding pocket competitive inhibitors (Western blot); assay type: cell-based; conditions: KD PKN3 (K588R) in transfected cells; changing concentrations; FIG. 3
T2 construct: The full-length cDNA of human PKN3 (WT or wt) was amplified by PCR and cloned into a GST-fusion expression vector; GST; expressed in transfected cells; host or cells: HEK293T
Excerpt: as §1, §2

PKN3-T860 = assay: Turn motif (T860) phosphorylation of Y27632-primed PKN3 after kinase inhibitor treatment (Western blot); assay type: cell-based, human; conditions: WT and KD PKN3, doxycycline 1 μg/ml 5 hours, primed with 10 μM Y27632, inhibitor 7 hours; FIGS. 4 and 5
Excerpt: (§3) The full-length cDNA of human PKN3 (WT or wt) was amplified by PCR and cloned into a GST-fusion expression vector under the control in a doxycycline (Dox)-inducible promoter. A kinase dead (KD or kd) version of PKN3, which comprises a K588R substitution, was also cloned into the same vector using the same strategy. The proteins were expressed in HEK293T cells transfected with the PKN3 WT and KD constructs.
as §2, with “Filters were blocked in TBST buffer (10 mM Tris-HCl [pH 7.5], 150 mM NaCl, 0.05% [vol/vol] Tween 20, 0.5% [wt/vol] sodium azide) containing 5% (wt/vol) dried milk. The respective antibodies were added in TBST at appropriate dilutions.” left out, “Alternatively, horseradish peroxidase-conjugated secondary antibodies were used and developed by enhanced chemiluminescence (Amersham).” left out

PKN1 = assay: Phosphorylated PKN1 (Western blot); assay type: cell-based; conditions: PKN3-transfected cells, inhibitor 7 hours; FIGS. 4 and 5, panels C
Procedure: as §2, with “(Amersham). […]” for “(Amersham).”

S6K-ST389 = assay: Phosphorylation of S6K-ST389, a target of mTORC1 (Western blot); assay type: cell-based; conditions: PKN3-transfected cells, inhibitor 7 hours; FIGS. 4 and 5
Procedure: as §2
(§4) PKN antibodies have been described in Leenders, 2004. […]

PKN2 = assay: Phosphorylated PKN2 (Western blot); assay type: cell-based; conditions: PKN3-transfected cells, inhibitor 7 hours; FIGS. 4 and 5, panels C
Procedure: as §2, with “(Amersham). […]” for “(Amersham).”

PKN3-T718 = assay: Activation loop (T718) phosphorylation of Y27632-primed PKN3 after kinase inhibitor treatment (Western blot); assay type: cell-based, human; conditions: WT and KD PKN3, doxycycline 1 μg/ml 5 hours, primed with 10 μM Y27632, inhibitor 7 hours; FIGS. 4 and 5
Excerpt: as §3
as §2, with “Filters were blocked in TBST buffer (10 mM Tris-HCl [pH 7.5], 150 mM NaCl, 0.05% [vol/vol] Tween 20, 0.5% [wt/vol] sodium azide) containing 5% (wt/vol) dried milk. The respective antibodies were added in TBST at appropriate dilutions.” left out, “Alternatively, horseradish peroxidase-conjugated secondary antibodies were used and developed by enhanced chemiluminescence (Amersham).” left out

AKT-S473 = assay: Phosphorylation of AKT-S473, a target of mTORC2 (Western blot); assay type: cell-based; conditions: PKN3-transfected cells, inhibitor 7 hours; FIGS. 4 and 5
Procedure: as §2, §4

[1] = test system: HEK293T cells transfected with wild-type PKN3; assay: PKN3-induced morphology changes in cells (photomicrographs); assay type: cell-based; conditions: FIG. 6, panel C
Excerpt: FIG. 6 depicts photomicrographs of HEK293T cells transfected with wild-type (panels A, B and C) or kinase-dead (panels D, E and F) PKN3 constructs under control of a doxycycline responsive promoter, in the absence of doxycycline (panels A and D), in the presence of doxycycline (panels B and E) or in the presence of doxycycline and WAY-125132 (panels C and F).
The effects of WAY-125132 on PKN3-induced morphology changes in cells were examined.

T2 sequence (Q6P5Z2 whole entry K588R, the tested form may be a part): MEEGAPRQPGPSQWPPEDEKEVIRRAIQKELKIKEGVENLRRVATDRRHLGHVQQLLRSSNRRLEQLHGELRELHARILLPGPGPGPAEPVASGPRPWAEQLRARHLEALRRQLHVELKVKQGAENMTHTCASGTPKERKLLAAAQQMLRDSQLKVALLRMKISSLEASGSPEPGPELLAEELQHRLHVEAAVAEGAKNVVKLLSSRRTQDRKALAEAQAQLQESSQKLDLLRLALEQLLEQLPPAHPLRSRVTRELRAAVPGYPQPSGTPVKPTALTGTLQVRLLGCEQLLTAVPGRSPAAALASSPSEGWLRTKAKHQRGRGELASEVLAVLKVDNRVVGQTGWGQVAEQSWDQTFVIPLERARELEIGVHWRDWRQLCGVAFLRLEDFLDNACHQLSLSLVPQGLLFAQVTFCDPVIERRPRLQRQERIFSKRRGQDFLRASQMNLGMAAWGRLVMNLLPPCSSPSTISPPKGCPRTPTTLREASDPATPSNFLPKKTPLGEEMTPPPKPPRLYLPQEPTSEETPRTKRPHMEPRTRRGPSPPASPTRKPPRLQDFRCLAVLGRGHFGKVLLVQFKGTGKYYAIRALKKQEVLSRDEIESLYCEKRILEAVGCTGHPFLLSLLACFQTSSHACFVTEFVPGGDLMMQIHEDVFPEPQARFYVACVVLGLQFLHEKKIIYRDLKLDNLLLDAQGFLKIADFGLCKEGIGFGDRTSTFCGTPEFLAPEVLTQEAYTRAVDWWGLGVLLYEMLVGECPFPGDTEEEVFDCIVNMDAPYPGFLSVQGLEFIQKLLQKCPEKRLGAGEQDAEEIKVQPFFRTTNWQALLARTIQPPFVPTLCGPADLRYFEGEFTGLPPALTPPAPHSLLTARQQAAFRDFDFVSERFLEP
T1 sequence (Q6P5Z2 whole entry, the tested form may be a part): as the sequence (Q6P5Z2 whole entry K588R, the tested form may be a part) above, with R588K counted along it

CCc1[nH]c(-c2ccc(OC)cc2)nc1-c1ccncc1 [SB202474]
inhibition of kinase activity of kinase active phosphorylated PKN3 (phospho-GSKα read-out) (PKN3): not
priming of kinase dead PKN3 to become phosphorylated at the turn motif threonine (kinase dead PKN3): not

Oc1ccc(-c2nc(-c3ccncc3)c(-c3ccc(F)cc3)[nH]2)cc1 [SB202190]
inhibition of kinase activity of kinase active phosphorylated PKN3 (phospho-GSKα read-out) (PKN3): inhibit the kinase activity of kinase active phosphorylated PKN3 in a concentration dependent manner
priming of kinase dead PKN3 to become phosphorylated at the turn motif threonine (kinase dead PKN3): primed kinase dead PKN3 to become phosphorylated at the turn motif threonine in a concentration dependent manner

CO[C@H]1C[C@@H]2CC[C@@H](C)[C@@](O)(O2)C(=O)C(=O)N2CCCC[C@H]2C(=O)O[C@H]([C@H](C)C[C@@H]2CC[C@@H](OC(=O)C(C)(CO)CO)[C@H](OC)C2)CC(=O)[C@H](C)/C=C(\C)[C@@H](O)[C@@H](OC)C(=O)[C@H](C)C[C@H](C)/C=C/C=C/C=C/1C [CCI-779, (3S,6R,7E,9R,10R,12R,14S,15E,17E,19E,21S,23S,26R,27R,34aS)-9,10,12,13,14,21,22,23,24,25,26,27,32,33,34,34a-Hexadecahydro-9,27-dihydroxy-3-[(1R)-2-[(1S,3R,4R)-4-hydroxy-3-methoxycyclohexyl]-1-methylethyl]-10,21-dimethoxy-6,8,12,14,20,26-hexamethyl-23,27-epoxy-3H-pyrido[2,1-c][1,4]oxaazacyclohentriacontine-1,5,11,28,29(4H,6H,31H)-pentone 4′-[2,2-bis(hydroxymethyl)propionate]]
inhibition of PKN3 T860 phosphorylation (PKN3-T860): had no effect
effect on PKN1 (PKN1): had no effect
inhibition of phosphorylation of S6K-ST389 (S6K-ST389): inhibit S6K-ST389
effect on PKN2 (PKN2): had no effect
inhibition of PKN3 T718 phosphorylation (PKN3-T718): had no effect
inhibition of phosphorylation of AKT-S473 (AKT-S473): had no effect

Cl.Cl.N=C(N)NN=C(Cn1ccnc1)c1ccc(Cl)cc1Cl [WAY-125132, 2-[1-(2,4-Dichlorophenyl)-2-(1H-imidazol-1-yl)ethylidene]hydrazinecarboximidamide dihydrochloride]
inhibition of PKN3 T860 phosphorylation (PKN3-T860): inhibit T860 phosphorylation in a dose dependent manner
inhibition of phosphorylation of S6K-ST389 (S6K-ST389): inhibit the phosphorylation of S6K-ST389
inhibition of PKN3 T718 phosphorylation (PKN3-T718): not T718 phosphorylation
inhibition of phosphorylation of AKT-S473 (AKT-S473): inhibit the phosphorylation
effect on transformed phenotype of doxycycline treated cells transfected with WT PKN3 [1]: reversed this effect

C[C@@H](N)[C@H]1CC[C@H](C(=O)Nc2ccncc2)CC1 [Y27632]
inhibition of kinase activity of kinase active phosphorylated PKN3 (phospho-GSKα read-out) (PKN3): inhibit the kinase activity of kinase active phosphorylated PKN3 in a concentration dependent manner
priming of kinase dead PKN3 to become phosphorylated at the turn motif threonine (kinase dead PKN3): primed kinase dead PKN3 to become phosphorylated at the turn motif threonine in a concentration dependent manner
